Reference: patent US8178554B2, “Heterocyclic compounds, their preparation and their use as medicaments, in particular as anti-bacterial agents” (priority 2000, dated 2012)

Columns and labels:
Format in all cases: cell-based
S. aureus Exp 54146 = assay: In vitro activity, dilution in liquid medium, M.I.C. on S. aureus Exp 54146; conditions: S. aureus Exp 54146, code 011UC4, incubation twenty-four hours at 37° C.
Description: (§1) In vitro activity, method of dilution in liquid medium
(§2) A series of tubes are prepared in which the same quantity of sterile nutritive medium is distributed. Increasing quantities of the product to be studied are distributed into each tube, then each tube is sown with a bacterial strain. After incubation for twenty-four hours in a heating chamber at 37° C., the growth inhibition is evaluated by transillumination, which allows the minimal inhibitory concentrations (M.I.C.) to be determined, expressed in μg/cml.

E. coli DC2 (permeable) = assay: In vitro activity, dilution in liquid medium, M.I.C. on E. coli DC2 (permeable); conditions: code 250HT6, incubation twenty-four hours at 37° C.
Description: as §1, §2

S. Pyogenes A561 = assay: In vitro activity, dilution in liquid medium, M.I.C. on S. Pyogenes A561; conditions: S. Pyogenes A561, code 02A1UC1, incubation twenty-four hours at 37° C.
Description: as §1, §2

E. coli (hyperpermeable) = assay: In vitro activity, dilution in liquid medium, M.I.C. on E. coli (hyperpermeable); conditions: code 250IP5, incubation twenty-four hours at 37° C.
Description: as §1, §2

S. aureus SG511 = assay: In vitro activity, dilution in liquid medium, M.I.C. on S. aureus SG511; conditions: S. aureus SG511, code 011 HT3, incubation twenty-four hours at 37° C.
Description: as §1, §2

E. coli = assay: In vitro activity, dilution in liquid medium, M.I.C. on E. coli 250HT11; conditions: code 250HT11, incubation twenty-four hours at 37° C.
Description: as §1, §2

| SMILES | M.I.C. (S. aureus Exp 54146) [µg/mL] | M.I.C. (E. coli DC2 (permeable)) [µg/mL] | M.I.C. (S. Pyogenes A561) [µg/mL] | M.I.C. (E. coli (hyperpermeable)) [µg/mL] | M.I.C. (S. aureus SG511) [µg/mL] | M.I.C. (E. coli) [µg/mL] |
| --- | --- | --- | --- | --- | --- | --- |
| [NH-]C(=O)[C@H]1CC[C@@H]2CN1C(=O)N2OS(=O)(=O)[O-].[Na+].[Na+] (relative stereo) [Test B, Sodium salt of trans-7-oxo-6-(sulphooxy)-1,6-diazabicyclo[3,2,1]octane-2-carboxamide] | >160 | 40 | >160 | 10 | >160 | 80 |
| O=C(OCc1ccccc1)[C@H]1CC[C@@H]2CN1C(=O)N2OS(=O)(=O)[O-].[Na+] (relative stereo) [Test F, Sodium salt of phenylmethyl trans-7-oxo-6-(sulphooxy)-1,6-diazabicyclo[3,2,1]octane-2-carboxylate] | 160 | – | – | – | 160 | – |
| O=C(NCc1ccccc1)[C@H]1CC[C@@H]2CN1C(=O)N2OS(=O)(=O)[O-].[Na+] (relative stereo) [Test E, Sodium salt of trans-7-oxo-N-(phenylmethyl)-6-(sulphooxy)-1,6-diazabicyclo[3,2,1]octane-2-carboxamide] | 5 | >80 | 1.2 | 20 | 5 | >80 |
| NC(=O)CNC(=O)[C@H]1CC[C@@H]2CN1C(=O)N2OS(=O)(=O)[O-].[Na+] (relative stereo) [Test A, Sodium salt of trans-N-(2-amino-2-oxoethyl)-7-oxo-6-(sulphooxy)-1,6-diazabicyclo[3,2,1]octane-2-carboxamide] | >160 | 80 | 160 | 20 | >160 | 160 |
| O=C(NCc1cccnc1)[C@H]1CC[C@@H]2CN1C(=O)N2OS(=O)(=O)[O-].[Na+] (relative stereo) [Test C, Sodium salt of trans-7-oxo-N-(3-pyridinylmethyl)-6-(sulphooxy)-1,6-diazabicyclo[3,2,1] octane-2-carboxamide] | >80 | 20 | >80 | 5 | >80 | 20 |
| O=C(NCc1ccncc1)[C@H]1CC[C@@H]2CN1C(=O)N2OS(=O)(=O)[O-].[Na+] (relative stereo) [Test D, Sodium salt of trans-7-oxo-N-[(4-pyridinyl)methyl]-6-(sulphooxy)-1,6-diazabicyclo[3,2,1] octane-2-carboxamide] | >80 | 20 | >80 | 2.5 | >80 | 20 |
